For 43 molecules, logP results are on record in ChEMBL document CHEMBL1150772, “Chemometric and chemoinformatic analyses of anabolic and androgenic activities of testosterone and dihydrotestosterone analogues” (Bioorg Med Chem, 2008).

As usually defined, the logP is the decadic logarithm of the partition coefficient of the neutral form, usually between octanol and water.

A short description of the data set: physchem. The conditions noted are these: octanol/water.
Description: Lipophilicity, log P of the compound
For the molecule `CN(C)CCN/C=C1\C[C@@]2(C)[C@@H](CC[C@@H]3[C@@H]2CC[C@@]2(C)[C@H]3CC[C@]2(C)O)CC1=O`, the log partition coefficient (logP) amounted to 2.53.
On to `C[C@]12C[C@H]3O[C@H]3C[C@@H]1CC[C@@H]1[C@@H]2CC[C@]2(C)[C@@H](O)CC[C@@H]12`, for which the logP worked out at 3.5.
For the molecule `C[C@H]1C[C@@H]2[C@H](CC[C@]3(C)[C@@H](O)CC[C@@H]23)[C@@]2(C)CCC(=O)C[C@H]12`, the lipophilicity (logP) came out at 4.26.
To `C[C@@H]1C[C@@H]2[C@H](CC[C@]3(C)[C@@H](O)CC[C@@H]23)[C@@]2(C)CCC(=O)C[C@H]12` belongs 4.26; to `CC1=C[C@@]2(C)C(=CC1=O)C=C[C@@H]1[C@@H]2CC[C@@]2(C)[C@H]1CC[C@]2(C)O`, 4.01; to `CC(=O)O[C@H]1CC[C@H]2[C@@H]3CC[C@H]4C[C@H]5[C@@H](C[C@]4(C)[C@H]3CC[C@]12C)C5(F)F`, 4.77.
Then `CC(=O)O[C@H]1CC[C@H]2[C@@H]3CCC4=C(Cl)C(=O)CC[C@]4(C)[C@H]3[C@@H](O)C[C@]12C`, with 2.88.
Then `CCOC1(O[C@H]2CC[C@H]3[C@@H]4CC[C@H]5CC(=O)CC[C@]5(C)[C@H]4CC[C@]23C)CCCC1`, with 6.02; and `C[C@@H]1CC2=CC(=O)CC[C@]2(C)[C@H]2CC[C@]3(C)C(=O)CC[C@H]3[C@H]12`, with 4.69.
Molecule `C[C@@H]1C[C@@]2(C)[C@@H](CC[C@@H]3[C@@H]2CC[C@]2(C)[C@@H](O)CC[C@@H]32)CC1=O` [DROMOSTANOLONE] displayed a logP of 4.5. The logP values of the last two molecules are within 0.2 log units of each other.
To `C[C@]12C[C@@H]3[C@H](C[C@@H]1CC[C@@H]1[C@@H]2CC[C@@]2(C)[C@H]1CC[C@]2(C)O)C3(F)F` belongs 4.72; to `C[C@H]1C[C@@H]2[C@H](CC[C@@]3(C)[C@H]2CC[C@]3(C)O)[C@@]2(C)CCC(=O)C[C@H]12`, 4.34.
Then `CC(=O)O[C@H]1CC[C@H]2[C@@H]3CCC4=C(O)C(=O)CC[C@]4(C)[C@H]3CC[C@]12C`, with 3.06.
Then `COC1(O[C@H]2CC[C@H]3[C@@H]4CC[C@H]5CC(=O)CC[C@]5(C)[C@H]4CC[C@]23C)CCCC1`, with 5.68; and `C[C@]12C[C@H](O)CC[C@@H]1CC[C@@H]1[C@@H]2CC[C@@]2(C)[C@H]1CC[C@]2(C)O`, with 3.8; and `C[C@]12CC[C@H]3[C@@H](C[C@@H](F)C4=CC(=O)CC[C@@]43C)[C@@H]1CC[C@@H]2O`, with 3.53.
Take `C[C@@H]1CC2=CC(=O)CC[C@]2(C)[C@H]2CC[C@]3(C)[C@@H](O)CC[C@H]3[C@H]12`: the logP worked out at 4.17.
Then `C[C@]12CC[C@H]3[C@@H](CCC4=CC(=O)CC[C@@]43C)[C@@H]1CC[C@@H]2OC(=O)C(F)Cl` (stereo partly drawn), with 4.7; and `C[C@]12CCC(=O)C=C1CC[C@@H]1[C@@H]2CC[C@@]2(C)[C@H]1CC[C@]2(C)O` [METHYLTESTOSTERONE], with 3.91; and `C[C@H]1C[C@@H]2[C@H](CC[C@@]3(C)[C@H]2CC[C@]3(C)O)[C@@]2(C)CCC(=O)C=C12`, with 4.24.
To `COC[C@@H]1C[C@@]2(C)[C@@H](CC[C@@H]3[C@@H]2CC[C@]2(C)[C@@H](O)CC[C@@H]32)CC1=O` belongs 3.77; to `C[C@]12CC[C@H]3[C@@H](CCC4=CC(=O)CC[C@@]43C)[C@@H]1CC[C@@H]2O[Si](C)(C)C`, 3.95; to `CCCO[C@@]1(C)CC[C@H]2[C@@H]3CC[C@H]4CC(=O)[C@H](C)C[C@]4(C)[C@H]3CC[C@@]21C`, 5.66.
Then `C[C@]12C[C@H](O)[C@H]3[C@@H](CCC4=CC(=O)CC[C@@]43C)[C@@H]1CC[C@@H]2O`, with 2.85; and `C[C@]12CC[C@H]3[C@@H](CCC4=CC(=O)[C@H](F)C[C@@]43C)[C@@H]1CC[C@@H]2O`, with 3.86; and `C[C@]12CCC(=O)C[C@@H]1CC[C@H]1C3=CC[C@H](O)[C@@]3(C)CC[C@@H]12`, with 3.5.
`CC(=O)O[C@H]1CC[C@H]2[C@@H]3CC[C@H]4C[C@@H]5[C@H](C[C@]4(C)[C@H]3CC[C@]12C)C5(F)F` came in with a logP of 4.77.
To `CCCO[C@@]1(C)CC[C@H]2[C@@H]3C[C@H](C)[C@H]4CC(=O)[C@H](C)C[C@]4(C)[C@H]3CC[C@@]21C` belongs 5.99; to `C[C@]12C[C@@H](F)C(=O)C[C@@H]1CC[C@@H]1[C@@H]2CC[C@]2(C)[C@@H](O)CC[C@@H]12`, 3.96.
To `C[C@]12CC/C(=N/NC(N)=O)C[C@@H]1CC[C@@H]1[C@@H]2CC[C@]2(C)[C@@H](O)CC[C@@H]12` belongs 3.45; to `C[C@]12CC[C@H]3[C@@H](CCC4=CC(=O)CC[C@@]43C)[C@@H]1CC[C@@H]2OC(=O)C(Cl)Cl`, 5.04.
To `CC(=O)O[C@H]1CC[C@H]2[C@@H]3CCC4=CC(=O)CC[C@]4(C)[C@H]3CC[C@]12C` belongs 4.2; to `C[C@]12CCC(=O)C[C@@H]1CC[C@@H]1[C@@H]2CC[C@@]2(C)[C@H]1CC[C@]2(C)O` [MESTANOLONE], 4.01; to `C[C@]12C/C(=C\N)C(=O)C[C@@H]1CC[C@@H]1[C@@H]2CC[C@@]2(C)[C@H]1CC[C@]2(C)O`, 2.8.
As for `C[C@]12CC[C@H]3[C@@H](CCC4=CC(=O)CC[C@@]43C)[C@@H]1CC[C@@H]2O` [TESTOSTERONE], the lipophilicity (logP) turned out to be 2.53.
To `C[C@]12CCC(=O)C=C1CC[C@@H]1[C@@H]2C(=O)C[C@]2(C)C(=O)CC[C@@H]12` [ADRENOTERONE] belongs 3.75.
To `CC(=O)O[C@H]1CC[C@H]2[C@@H]3CCC4=C(Cl)C(=O)CC[C@]4(C)[C@H]3CC[C@]12C` belongs 3.87; to `C[C@@H]1C[C@]2(C)C3=CC[C@@]4(C)C(CC[C@]4(C)O)[C@@H]3CC[C@H]2CC1=O` (stereo partly drawn), 4.14.
Turning to `C[C@]12CCC(=O)C=C1CC[C@@H]1[C@@H]2[C@@H](O)C[C@@]2(C)[C@H]1CC[C@]2(C)O`, the logP was found to be 2.93.
To `C[C@H]1C/C(=N\O)C[C@@H]2CC[C@@H]3[C@H](CC[C@@]4(C)[C@H]3CC[C@]4(C)O)[C@]21C` belongs 5; to `C[C@]12C[C@@H]3O[C@@H]3C[C@@H]1CC[C@@H]1[C@@H]2CC[C@]2(C)[C@@H](O)CC[C@@H]12`, 4.5.
Then `C[C@@H]1CC2=CC(=O)CC[C@]2(C)[C@H]2CC[C@@]3(C)[C@@H](CC[C@]3(C)O)[C@H]12` [BOLASTERONE], with 4.24.
To `C[C@]12CC[C@@H](O)C[C@@H]1CC[C@@H]1[C@@H]2CC[C@]2(C)[C@@H](O)CC[C@@H]12` [ANDROSTANDIOL] belongs 5.49.
